Target: T1, acetylcholinesterase (AChE) (Electrophorus electricus, UniProt O42275)
T1 construct: commercial native enzyme from electric eel (Sigma-Aldrich)
Test: Ellman assay, […] nm
Assay type: biochemical

T1 sequence (O42275 24-633): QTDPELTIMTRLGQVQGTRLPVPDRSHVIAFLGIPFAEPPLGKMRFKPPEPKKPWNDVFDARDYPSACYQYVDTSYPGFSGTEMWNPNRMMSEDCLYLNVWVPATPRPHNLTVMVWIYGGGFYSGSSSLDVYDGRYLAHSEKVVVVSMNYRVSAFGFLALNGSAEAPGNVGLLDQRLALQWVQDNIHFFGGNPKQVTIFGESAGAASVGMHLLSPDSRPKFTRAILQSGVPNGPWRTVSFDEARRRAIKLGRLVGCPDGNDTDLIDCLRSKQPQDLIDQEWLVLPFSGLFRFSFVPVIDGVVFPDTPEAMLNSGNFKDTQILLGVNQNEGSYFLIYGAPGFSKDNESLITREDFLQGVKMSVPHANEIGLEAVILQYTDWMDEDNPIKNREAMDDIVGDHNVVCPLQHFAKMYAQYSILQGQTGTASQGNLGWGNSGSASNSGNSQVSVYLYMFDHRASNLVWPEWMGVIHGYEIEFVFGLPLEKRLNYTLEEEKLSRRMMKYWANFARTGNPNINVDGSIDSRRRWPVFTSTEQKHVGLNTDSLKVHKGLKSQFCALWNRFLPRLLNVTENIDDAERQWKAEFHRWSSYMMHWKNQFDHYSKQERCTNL

## C[C@@H]1C[C@H]2OC(=O)[C@@]3(C)CCC[C@@](C)([C@@H]23)[C@@]1(O)CCc1ccoc1 [marrubiin]
  IC50: 52.7 ± 5.66 µM

Reference: article PMC10821196, “Analysis of Marrubiin in Marrubium alysson L. Extract Using Advanced HPTLC: Chemical Profiling, Acetylcholinesterase Inhibitory Activity, and Molecular Docking” (Metabolites, 2023)
